Experiment: Tolerability in subcutaneous NB model (MTD, adverse effects, body weight)
Assay type: in vivo
Details: 50 mg/kg BID oral gavage, NB-bearing mice
Experimental: In other set of experiments, Balb/c nude mice were xenografted with SH-SY5Y cells as earlier. […] Tumors were measured twice weekly using callipers, and volume was calculated using the formula: Length × Width^2 × 0.5. Body weight was also assessed twice weekly. The experiment was terminated after 3 weeks of treatment.

## C[C@@H](Oc1cc(-c2cnn(C3CCNCC3)c2)cnc1N)c1c(Cl)ccc(F)c1Cl [crizotinib, Crizotinib]
  mice weight over time: No signs of severe weight
